Key:
Assay type in all cases: in vivo
[1] = tested on: Cotton Aphid (Aphis gossypii), mixed life stages; experiment: Cotton aphid (Aphis gossypii), mixed life stages, cotyledon dip test; conditions: 120 h, infested cotton cotyledons dipped, determined after 5 days, read-out: mortality of cotton aphid in comparison with untreated controls
Protocol: (§1) The active compounds were formulated in a mixture of 50 vol.-% acetone:50 vol.-% water. A nonionic surfactant (Kinetic®) was included in the solution at a volume of 0.01% v/v.
(§2) In the following tests, the formulated solutions of the active compounds were diluted to an active ingredient concentration of 300 ppm and the diluted solutions were applied in the below mentioned tests.
(§3) II.1 Cotton Aphid (Aphis gossypil), Mixed Life Stages • Cotton plants at the cotyledon stage were infested prior to treatment by placing a heavily infested leaf from the main aphid colony on top of each cotyledon. The aphids were allowed to transfer overnight and the host leaf was removed. The infested cotyledons were then dipped and agitated in the test solution for 3 seconds and allowed to dry in a fume hood. […] Aphid mortality on the treated plants, relative to mortality on untreated check plants, was determined after 5 days. • In this test compounds each of examples 12 to 36, 38, 39, 40 and 41 at 300 ppm provided at least 90% mortality of cotton aphid (Aphis gossypii, mixed life stages) in comparison with untreated controls. […] Aphid mortality on the treated plants, relative to mortality on untreated check plants, was determined after 5 days. • In this test compounds each of examples 12 to 36, 38, 39, 40 and 41 at 300 ppm provided at least 90% mortality of green peach aphidin comparison with untreated controls. […]

[2] = tested on: Green Peach Aphid (Myzus persicae), mixed life stages; experiment: Green peach aphid (Myzus persicae), mixed life stages, bell pepper leaf dip test; conditions: foliar, 120 h, infested bell pepper leaves dipped, determined after 5 days, read-out: mortality of green peach aphid in comparison with untreated controls
Protocol: as §1, §2, §3

Bean Aphid (Aphis fabae) = experiment: Bean aphid (Aphis fabae), nasturtium plant dip test; conditions: 72 h, infested nasturtium plants dipped, determined after 3 days, read-out: mortality of bean aphid in comparison with untreated controls

Measured: mortality at 300 ppm

Cc1cncc(S(=O)(=O)N(C)C)c1C#N [Example 12, 4-Cyano-5-methyl-pyridine-3-sulfonic acid dimethylamide]
≥ 90%: all assays above
